# According to patent US11479534B2, “Compound and use thereof in medicine” (Changsha Hooz Bioscience And Technology Co., Ltd, priority 2018, dated 2022):
# How the values were obtained:
# [1] = tested on: prostate cancer cells DU145; assay: MTS cell survival assay, DU145; format: cell-based; conditions: Homo sapiens, DU-145, DU145, 72 hours, read-out: half inhibitory dose (IC50)
# Procedure: (§1) Culturing prostate cancer cells PC3 and DU145 cells, as well as non-cancerous normal cells (5000 cells/well) in a 96-well cell culture dish, and then using different doses of said compound M3 to treat prostate cancer cells PC3 and DU145 cells and normal […] cells RWPE1 and HPrEC. After 72 hours, detecting the survival rate of the cells by MTS method, and calculate […] of said compound M3 for different cells using software.
# [2] = Safety in nude mouse: weight and serum biochemical indicators; format: in vivo; conditions: 200 mg/kg/day intragastrically, 4 weeks
# Procedure: Intragastrically administering the compound M3 of the present invention (200 mg/kg/day) in an immunodeficient nude mouse once a day, 5 days a week with 2 days rest in between, for a total of 4 weeks of continuous treatment; using solvent DMSO as a control. Weight of the nude mouse is measured before treatment and every 3 days after the treatment begins. When the experiment ends, extract blood from the nude mouse, separate blood serum, and detect the changes in biochemical indicators, including: aspartate aminotransferase (AST) and alanine aminotransferase (ALT) indicative of liver function, blood urea nitrogen (BUN) and creatinine (CREA) indicative of kidney function, and creatine kinase (CK) and l lactate dehydrogenase (LDH-L) indicative of heart function, to evaluate the effect of […] on heart, liver and kidney functions.
# DNMT1 = assay: Western blot of DNMT1 protein expression in treated DU145 cells; format: cell-based; conditions: 24 hours, Western blot (FIG. 1)
# [3] = tested on: prostate cancer DU145 cells xenograft tumor; assay: Subcutaneous xenograft model of prostate cancer DU145 cells in nude mouse; format: in vivo; conditions: 100 mg/kg/day intragastrically, 5 days a week, 4 weeks; compared with control compound M1
# Procedure: Establishing a subcutaneous xenograft model of prostate cancer DU145 cells (1×106) in immunodeficient mouse by subcutaneous injection, allowing around 2-3 weeks for the xenograft to grow into a size of around 250 mm3, and then intragastrically administering the compound M3 of the present invention (100 mg/kg/day) once a day, 5 days a week with 2 days rest in between, for a total of 4 weeks of continuous treatment. Said […] and solvent DMSO are used as controls. Tumor size is measured before treatment and every 3 days after treatment begins. The size of the tumor is calculated according to the formula V=length×width 2/2.
# UHRF1 = target: T1, UHRF1 (Homo sapiens, UniProt Q96T88); assay: Western blot of UHRF1 protein level in treated DU145 cells; format: cell-based
# T1 construct: reduces the protein level of the oncogene UHRF1 in prostate cancer cells in a dose-dependent manner; endogenous in cells; host or cells: DU145
# T1 sequence (Q96T88 1-793): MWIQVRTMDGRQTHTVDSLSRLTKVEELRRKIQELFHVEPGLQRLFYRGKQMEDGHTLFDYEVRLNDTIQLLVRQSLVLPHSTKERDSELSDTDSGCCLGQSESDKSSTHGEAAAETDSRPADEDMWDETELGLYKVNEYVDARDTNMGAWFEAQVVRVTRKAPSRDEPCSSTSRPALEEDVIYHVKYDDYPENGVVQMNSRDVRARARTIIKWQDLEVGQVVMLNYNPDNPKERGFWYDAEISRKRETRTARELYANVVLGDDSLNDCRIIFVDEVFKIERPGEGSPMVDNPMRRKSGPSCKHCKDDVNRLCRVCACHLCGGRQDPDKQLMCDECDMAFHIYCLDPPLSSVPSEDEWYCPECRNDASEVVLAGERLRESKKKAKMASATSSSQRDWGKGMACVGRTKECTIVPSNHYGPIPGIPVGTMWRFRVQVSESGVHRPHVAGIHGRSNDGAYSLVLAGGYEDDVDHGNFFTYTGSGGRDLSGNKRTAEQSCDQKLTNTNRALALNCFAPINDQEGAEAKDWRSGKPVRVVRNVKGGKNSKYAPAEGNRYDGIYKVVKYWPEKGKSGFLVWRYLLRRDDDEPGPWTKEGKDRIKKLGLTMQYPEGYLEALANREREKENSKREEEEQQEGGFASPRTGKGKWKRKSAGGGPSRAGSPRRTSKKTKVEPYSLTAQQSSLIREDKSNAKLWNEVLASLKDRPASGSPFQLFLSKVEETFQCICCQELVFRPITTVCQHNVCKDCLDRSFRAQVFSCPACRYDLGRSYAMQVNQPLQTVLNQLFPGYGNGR
# Procedure: (§2) Culturing a same amount of prostate cancer cell line DU145 in each well of a 6-well culture dish, allowing cell adhesion for 24 hours, and then using different doses of said compound M3 (50, 100 and 150 μM) to treat the prostate cancer cell DU145, and using said compound M1 as a control drug. After 24 hours, harvest the cells for Western blot to detect the protein levels of UHRF1, histone H3 and acetylated histone H3. […] The results of this experiment verifies that the compound M3 of the present invention specifically dual-targeting UHRF1 and HDAC molecules.
# [4] = tested on: prostate cancer cells PC3; assay: MTS cell survival assay, PC3; format: cell-based
# Procedure: as §1
# HPrEC cells = assay: MTS cell survival assay, HPrEC; format: cell-based; conditions: HPrEC normal cells, 72 hours
# Procedure: as §1
# RWPE1 cells = assay: MTS cell survival assay, RWPE1; format: cell-based; conditions: Homo sapiens, RWPE-1, RWPE1 normal cells, 72 hours
# Procedure: as §1
# HDAC1 [5] = assay: Western blot of acetylated histone H3 and total histone H3 in treated DU145 cells (HDAC targeting); format: cell-based; conditions: DU145 cells, 50, 100 and 150 μM, 24 hours, Western blot (FIG. 1)
# Procedure: as §2
# HDAC1 [6] = target: T2, HDAC1 (Homo sapiens, UniProt Q13547); assay: as above; format: cell-based; conditions: FIG. 6, M2 and M3 under the same dose
# T2 construct: endogenous in cells; host or cells: DU145
# T2 sequence (Q13547 whole entry): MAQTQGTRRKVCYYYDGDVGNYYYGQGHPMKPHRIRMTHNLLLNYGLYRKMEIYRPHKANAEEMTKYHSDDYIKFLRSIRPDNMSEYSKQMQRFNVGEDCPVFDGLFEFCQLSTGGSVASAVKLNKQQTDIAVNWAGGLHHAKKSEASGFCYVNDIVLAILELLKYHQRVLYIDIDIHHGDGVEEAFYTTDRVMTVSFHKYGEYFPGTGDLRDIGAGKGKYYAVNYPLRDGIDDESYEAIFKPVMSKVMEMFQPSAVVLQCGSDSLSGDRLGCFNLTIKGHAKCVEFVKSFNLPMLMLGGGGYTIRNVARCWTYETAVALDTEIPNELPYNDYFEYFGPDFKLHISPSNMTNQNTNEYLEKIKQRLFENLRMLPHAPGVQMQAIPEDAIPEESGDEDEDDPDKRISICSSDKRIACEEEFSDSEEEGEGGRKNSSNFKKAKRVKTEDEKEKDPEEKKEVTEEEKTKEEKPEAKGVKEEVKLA
# Procedure: as §2
smiles,measurement,setting,value
"O=C(CCCCCCC(=O)Nc1c[nH]c(=O)[nH]c1=O)NO [M3, N1-(carbonyl-5-aminouracil)-N8-octylhydroxyamide]",IC50,[1],< 50 µM
same,weight of the nude mouse,[2],does not significantly reduce the weight
same,"heart function (CK, LDH-L)",[2]; blood serum,no significant effect
same,"kidney function (BUN, CREA)",[2]; blood serum,no significant effect
same,"liver function (AST, ALT)",[2]; blood serum,no significant effect
same,protein expression of DNMT1,DNMT1,significantly reduced
same,tumor growth,[3],significantly reduces tumor growth compared with the control compound M1
same,protein level of UHRF1,"UHRF1; DU145 cells, 50, 100 and 150 μM, 24 hours, Western blot (FIG. 1)",specifically reduces the protein level of the oncogene UHRF1 in prostate cancer cells in a dose-dependent manner
same,protein level of UHRF1 target,"UHRF1; FIG. 6, M2 and M3 under the same dose",significantly reduces the protein stability of UHRF1
same,IC50,"[4]; PC3, 72 hours, MTS, read-out: half inhibitory dose (IC50)",< 50 µM
same,selectivity for killing prostate cancer cells,[4]; PC3 and DU145 compared with RWPE1 and HPrEC,good selectivity for killing prostate cancer cells
same,IC50,HPrEC cells,> 300 µM
same,IC50,RWPE1 cells,> 300 µM
same,acetylation level of histone H3,HDAC1 [5],causes an increase in acetylation level of histone H3
same,total histone H3 level,HDAC1 [5],not affected
same,activity of HDAC1 (acetylated histone H3),HDAC1 [6],significantly inhibits the activity of HDAC1
